# Measured values from patent US20150094321A1, “COMBINATION” (GlaxoSmithKline LLC, priority 2009, published 2015).
# Experiments:
# HCC1937 = assay: Cell growth inhibition assay; type: cell-based; settings: Homo sapiens; HCC1937, breast, PTEN low; single agent; read-out: IC50 Single Agent (mean +/- std)
# Experimental: (§1) Human breast tumor lines. BT-474, HCC1419, HCC1937, HCC1954, HCC202, KPL-1, MDA-MB-157, MDA-MB-175-VII, MDA-MB-361, MDA-MB-453, SK-BR-3, SUM225PE, UACC893, and ZR-75-1; lung tumor line, CALU-3; and melanoma line, CHL-1, were from ATCC. Human breast tumor line JIMT-1 was from European Collection of Cell Cultures (UK). Human breast tumor lines SUM149PT, SUM190PT and SUM52PE were from Asterand. These lines were cultured in RPMI 1640 medium containing 10% fetal bovine serum (FBS). A head and neck tumor line, LICR LON HN5 (HN5), a gift from the Institute of Cancer Research, Surrey, U.K, was cultured in Dulbecco's modified Eagle medium (DMEM) containing 5% FBS; KPL-4 breast tumor cell line was kindly provided by Dr Junichi Kurebayashi (Kawasaki Medical School, Okayama, Japan) and cultured in DMEM containing 5% FBS. JIMT-1 is a line derived from a patient clinically resistant to trastuzumab (Herceptin®). BT-474-J4 is a single cell clone derived from a pool of BT-474 cells that were selected to grow in lapatinib to a concentration of 3 μM.
# (§2) All cells were cultured for a minimum of 72 hours prior to cell plating. Cells were assayed in a 96-well tissue culture plate (NUNC 136102) of RPMI medium containing 10% FBS for all cells at 2,000 cells per well except KPL-4 and HN5 which were plated in DMEM containing 5% FBS at 500 cells per well. Approximately 24 hours after plating, cells were exposed to ten, two-fold or three-fold serial dilutions of compound or the combination of the two agents at a constant molar to molar ratio of 1:1 Compound A to Compound B in RPMI media containing 10% FBS or DMEM containing 5% FBS. Cells were incubated in the presence of compounds for 3 days. ATP levels were determined by adding Cell Titer Glo® (Promega) according to the manufacturer's protocol. Briefly, Cell Titer Glo® was added each plate, incubated for 20 minutes then luminescent signal was read on the SpectraMax L plate reader with a 0.5 sec integration time.
# (§3) Inhibition of cell growth was estimated after treatment with compound or combination of compounds for three days and comparing the signal to cells treated with vehicle (DMSO). Cell growth was calculated relative to vehicle (DMSO) treated control wells. Concentration of compound that inhibits 50% of control cell growth (IC50) was interpolated using nonlinear regression with the equation, y=(A+(B−A)/(1+(C/x)̂D))), where A is the minimum response (ymin), B is the maximum response (ymax), C is the inflection point of the curve (EC50) and D is the Hill coefficient. […]
# KPL-1 = assay: Cell growth inhibition assay; type: cell-based; settings: Homo sapiens; KPL-1, breast, PIK3CA E545K; single agent; read-out: IC50 Single Agent (mean +/- std)
# Experimental: as §1, §2, §3
# SK-BR-3 = assay: Cell growth inhibition assay; type: cell-based; settings: Homo sapiens; SK-BR-3, breast, HER2+, WT; single agent; read-out: IC50 Single Agent (mean +/- std)
# Experimental: as §1, §2, §3
# HCC202 = assay: Cell growth inhibition assay; type: cell-based; settings: Homo sapiens; HCC202, breast, HER2+, PIK3CA E545K; single agent; read-out: IC50 Single Agent (mean +/- std)
# Experimental: as §1, §2, §3
# BT-474 = assay: Cell growth inhibition assay; type: cell-based; settings: Homo sapiens; BT-474, breast, HER2+, PIK3CA K111N; single agent; read-out: IC50 Single Agent (mean +/- std)
# Experimental: as §1, §2, §3
# HCC1419 = assay: Cell growth inhibition assay; type: cell-based; settings: Homo sapiens; HCC1419, breast, HER2+, WT; single agent; read-out: IC50 Single Agent (mean +/- std)
# Experimental: as §1, §2, §3
# MDA-MB-157 = assay: Cell growth inhibition assay; type: cell-based; settings: Homo sapiens; MDA-MB-157, breast, WT; single agent; read-out: IC50 Single Agent (mean +/- std)
# Experimental: as §1, §2, §3
# HPAC tumor xenografts = assay: Growth of human pancreatic tumor xenografts in SCID mice; type: in vivo; settings: for % Tumor Growth Inhibition: QD; for tumor growth inhibition: HPAC
# Experimental: (§4) Female SCID mice were implanted subcutaneously with HPAC or Capan2 tumor cells (human pancreatic carcinoma harboring mutant KRAS gene). When the tumor volume reached ˜150 mm^3, mice were block randomized to different treatment groups (n=8 mice/group). Mice received AKT inhibitor, Compound B, at 10 or 30 mg/kg, once daily (QD). MEK inhibitor, Compound A, was administered at 0.1, 0.3 and 1.0 mg/kg, once daily (QD) alone or at 0.1 and 0.3 mg/kg once daily in combination with AKT inhibitor. Mice were weighed and tumors measured by calipers twice weekly. Treatment was continued till the tumor volume reached >1000 mm^3. Tumor volumes were calculated using the formula: tumor volume=(Length×Width^2)/2. The percentage of tumor growth inhibition was calculated on each day of tumor measurement using the formula: 100×[1−(average growth of the compound-treated tumors/average growth of vehicle-treated control tumors)]. Data is plotted as mean±sem for tumor volume for each group.
# Capan2 tumor xenografts = assay: as above; type: in vivo; settings: for % Tumor Growth Inhibition: Capan2-D01, QD, Treatment Duration 56; for tumor growth inhibition: Capan2
# Experimental: as §4
structure (smiles),measurement,setting,value
"CC(=O)Nc1cccc(-n2c(=O)n(C3CC3)c(=O)c3c(Nc4ccc(I)cc4F)n(C)c(=O)c(C)c32)c1 [Compound A, N-{3-[3-cyclopropyl-5-(2-fluoro-4-iodo-phenylamino)-6,8-dimethyl-2,4,7-trioxo-3,4,6,7-tetrahydro-2H-pyrido[4,3-d]pyrimidin-1-yl]phenyl}acetamide]",IC50,HCC1937,> 1000 nM
same,IC50,KPL-1,> 1000 nM
same,IC50,SK-BR-3,> 1000 nM
same,IC50,HCC202,> 1000 nM
same,IC50,BT-474,> 1000 nM
same,IC50,HCC1419,> 1000 nM
same,IC50,MDA-MB-157,> 1000 nM
same,% Tumor Growth Inhibition,"HPAC tumor xenografts; HPAC-D01, Compound A 0.1 mg/kg po, Treatment Duration 75",38%
same,% Tumor Growth Inhibition,"HPAC tumor xenografts; HPAC-D01, Compound A 0.3 mg/kg po, Treatment Duration 75",60%
same,% Tumor Growth Inhibition,"HPAC tumor xenografts; HPAC-D01, Compound A 1 mg/kg po, Treatment Duration 75",91%
same,% Tumor Growth Inhibition,"HPAC tumor xenografts; HPAC-D02, Compound A 0.1 mg/kg po, Treatment Duration 74",41%
same,% Tumor Growth Inhibition,"HPAC tumor xenografts; HPAC-D02, Compound A 0.3 mg/kg po, Treatment Duration 74",65%
same,% Tumor Growth Inhibition,"HPAC tumor xenografts; HPAC-D02, Compound A 1 mg/kg po, Treatment Duration 74",89%
same,tumor growth inhibition,HPAC tumor xenografts; 0.1 mg/kg QD,~40%
same,tumor growth inhibition,HPAC tumor xenografts; 0.3 mg/kg QD,~60%
same,tumor growth inhibition,HPAC tumor xenografts; 1 mg/kg QD,~90%
same,% Tumor Growth Inhibition,Capan2 tumor xenografts; Compound A 0.1 mg/kg po,74%
same,% Tumor Growth Inhibition,Capan2 tumor xenografts; Compound A 0.3 mg/kg po,90%
same,% Tumor Growth Inhibition,Capan2 tumor xenografts; Compound A 1 mg/kg po,104%
same,tumor growth inhibition,Capan2 tumor xenografts; 0.1 mg/kg,70%
same,tumor growth inhibition,Capan2 tumor xenografts; 0.3 mg/kg,87%
same,tumor growth inhibition,Capan2 tumor xenografts; 1.0 mg/kg,104%
"Cn1ncc(Cl)c1-c1cc(C(=O)N[C@H](CN)Cc2ccc(F)c(F)c2)oc1Cl [Compound B, N-{(1S)-2-amino-1-[(3,4-difluorophenyl)methyl]ethyl}-5-chloro-4-(4-chloro-1-methyl-1H-pyrazol-5-yl)-2-furancarboxamide]",IC50,HCC1937,> 1000 nM
same,IC50,KPL-1,> 1000 nM
same,IC50,SK-BR-3,> 1000 nM
same,IC50,HCC202,> 1000 nM
same,IC50,BT-474,> 1000 nM
same,IC50,HCC1419,> 1000 nM
same,IC50,MDA-MB-157,> 1000 nM
same,% Tumor Growth Inhibition,"HPAC tumor xenografts; HPAC-D01, Compound B 10 mg/kg po, Treatment Duration 75",11%
same,% Tumor Growth Inhibition,"HPAC tumor xenografts; HPAC-D01, Compound B 30 mg/kg po, Treatment Duration 75",40%
same,% Tumor Growth Inhibition,"HPAC tumor xenografts; HPAC-D02, Compound B 10 mg/kg po, Treatment Duration 74",15%
same,% Tumor Growth Inhibition,"HPAC tumor xenografts; HPAC-D02, Compound B 30 mg/kg po, Treatment Duration 74",31%
same,tumor growth inhibition,"HPAC tumor xenografts; 10 mg/kg QD, two independent studies",11-15%
same,tumor growth inhibition,"HPAC tumor xenografts; 30 mg/kg QD, two independent studies",31-40%
same,% Tumor Growth Inhibition,Capan2 tumor xenografts; Compound B 10 mg/kg po,22%
same,% Tumor Growth Inhibition,Capan2 tumor xenografts; Compound B 30 mg/kg po,26%
same,tumor growth inhibition,Capan2 tumor xenografts; at both 10 and 30 mg/kg doses,27-30%
